Results on one molecule are retold here after patent US9963518B2, “Cyclic oligosaccharides for use in the treatment and prevention of bacterial infection” (priority 2011, dated 2018).

One assay has as its target mutant Wza ΔP106-A107 (Escherichia coli, UniProt Q9X4B7, DEL106-107). Briefly: Single-channel electrical recording, mutant Wza ΔP106-A107. Type of assay: binding, E. coli. Particulars: n = 3, read-out: Dissociation constant (Kd) with mutant Wza pore.
Another assay deals with mutant Wza Y110G/Y373C (Escherichia coli, UniProt Q9X4B7, Y110G/Y373C). The assay is described as follows: Single-channel electrical recording, mutant Wza Y110G/Y373C. The class given is binding, E. coli. Particulars: 2M KCl buffer pH 7.5, +3 mV, n = 3, read-out: Dissociation constant (Kd) with mutant Wza pore.
In the next assay the target is WT Wza (Escherichia coli, UniProt Q9X4B7). The assay is described as follows: Single-channel electrical recording, blockers against wt-Wza in planar lipid bilayers. Particulars: 2M KCl, 5 mM HEPES, 100 μM EDTA, 200 μM DTT, pH 7.5. Type of assay: binding, E. coli. The procedure: The Wt Wza transporter was tested in single-channel recording, in accordance with the procedures of Naismith (Nature 2006, 444, 226-229) for its ability to form pores in planar lipid bilayers. Sequential insertions of channels in a single orientation were used to measure the conductance of a single channel because more than one channel could insert simultaneously during the first introduction, especially when protein molecules have not properly diffused yet. Repetition of experiments helped to verify conductance of a single channel. […] After collection of 37 insertions of wt Wza channel, the current of a single channel of wt Wza in 2 M KCl buffer was determined to be 1.89±0.01 pA (n=37) on average, corresponding to 18.9±0.1 pS (n=37) in conductance.
Thirteen commercial cyclodextrins (CDs) were tested for their ability to block WT-Wza and the mutant Y110G/K375C (Table 1) including, neutral, negatively charged or positively charged cyclodextrins. Testing was carried out using electrical channel recording in high salt buffer (2M KCl, 5 mM HEPES, 100 μM EDTA, 200 μM DTT) at pH 7.5.

For a further assay, the system named is E. coli strain E69. The assay is described as follows: LPS exposure assay, O9a LPS to O9a LPS-specific antibodies (FACS). Type of assay: cell-based. On the procedure: The direct effect of the inhibition of K30 CPS transport on E. coli strain E69 is the appearance of defects in the capsule layer. This should in turn lead to exposure of O9a LPS at the cell surface. To test this hypothesis, the attachment of rabbit anti-O9a antibodies was quantified by flow cytometry (FACS), by using secondary fluorescent anti-rabbit antibodies. The design of the experiment is depicted schematically in FIG. 4a.
E. coli strains E69 and CWG281 were grown as described above in Example 4 and the OD600 was adjusted to 0.4. The concentrations of cyclodextrin (either am8γCD (compound 13), am6αCD (compound 3) or am7βCD (compound 10)) present in the growth media were 10 nM, 100 nM, 1 μM, 10 μM, 50 μM, 100 μM and 1 mM. 50 μL samples of each were centrifuged at 3,000×g for 10 min to remove the medium, washed with PBS and resuspended in 50 μL PBS. O9a antiserum (0.5 μL) was then added. The mixtures were incubated on ice for 1 h (to compare the effects of am6αCD, am7βCD and am8γCD on the exposure of LPS) or 2 h (for the estimation of minimum effective concentration of am8γCD required to expose LPS to antibodies), followed by centrifugation at 3,000×g for 10 min and washing with PBS. The pellets were resuspended in PBS (50 μL), to which Alexa Fluor 488 Goat Anti-Rabbit IgG secondary antibody (1 μL, Life Technologies, A11034, λex 495 nm, λem 519 nm) was added, followed by incubation for 1 h on ice. The cells were then centrifuged at 3,000×g for 10 min. The pellets were resuspended in PBS (1 mL), followed by analysis by flow cytometry (FACS) using a Becton-Dickinson FACSCalibur. 10,000 cells were analysed for each sample. Fluorescence was measured in the FL1 channel (530 nm).

The structures appear in SMILES notation. Read-outs that look alike come from different tables or passages of the source.

For orientation: Kd means a measure of binding affinity in units of concentration. Consider `NC[C@H]1O[C@@H]2O[C@H]3[C@H](O)[C@@H](O)[C@@H](O[C@H]4[C@H](O)[C@@H](O)[C@@H](O[C@H]5[C@H](O)[C@@H](O)[C@@H](O[C@H]6[C@H](O)[C@@H](O)[C@@H](O[C@H]7[C@H](O)[C@@H](O)[C@@H](O[C@H]8[C@H](O)[C@@H](O)[C@@H](O[C@H]9[C@H](O)[C@@H](O)[C@@H](O[C@H]1[C@H](O)[C@H]2O)O[C@@H]9CN)O[C@@H]8CN)O[C@@H]7CN)O[C@@H]6CN)O[C@@H]5CN)O[C@@H]4CN)O[C@@H]3CN` [No. 12, Octacis (6-amino-6-deoxy)-γ-cyclodextrin], for which the Kd is 0.044 ± 0.025 µM on mutant Wza ΔP106-A107 (ΔP106-A107, 300 mM KCl, 5 mM HEPES, pH 7.5, +5 mV); 7.8 ± 5.2 µM at mutant Wza ΔP106-A107 (ΔP106-A107, 2M KCl buffer pH 7.5, +3 mV); 570 ± 520 µM at mutant Wza Y110G/Y373C. For the same molecule, at WT Wza, the “Interaction with WT Wza” value was “not observed”. The “LPS exposure by median fluorescence intensity” value in the assay with E. coli strain E69 (1 μM, antiserum incubation 2 h) is 5.1%; in the assay on E. coli strain E69 (50 μM, antiserum incubation 1 h, relative to CWG281 positive control) it was 4.9%; in the assay on E. coli strain E69 (1 mM, antiserum incubation 1 h, relative to CWG281 positive control) it was 20%. Besides, the “LPS exposure by percentage of labelled cells” value was found to be 44% in the assay with E. coli strain E69 (1 μM, antiserum incubation 2 h); 36% in the assay with E. coli strain E69 (50 μM, antiserum incubation 1 h); 96% in the assay with E. coli strain E69 (1 mM, antiserum incubation 1 h).
